Several values for one entry are separate records, joined by “and”; a condition that tells them apart may be missing. Equal entries are not always repeated.
Assays:
[1] = Dispersive biomimetic solid-phase extraction (d-BMSPE) with PC-modified POP material; assay type: in vitro ADME; settings: 30 min; for d-BMSPE extraction efficiency: 3.5 mg/L CEC in 5 mL PBS pH 7.4, ca. 40 mg PC-modified POP, 15 rpm, 37 °C; for RMBE·10^4 (relative mol bioextraction): value = RMBE x 10^4, mol analyte extracted per mol PC attached, PBS pH 7.4, 37 °C
Experimental: The experimental procedure starts by spiking 5 mL of PBS at pH 7.4 mimicking pH conditions from the small intestine with 3.5 mg L^–1 of the selected CEC and mixing with ca. 40 mg of PC-modified POP material. The material is dispersed gently in the solution at 15 rpm for 30 min at physiological temperature (37 °C) using a lab rotator, followed by separation of the biomimetic material by centrifugation. After separation, the supernatant of the biomimetic extractions is analyzed by HPLC. The bioextractable fraction of every CEC is determined by subtraction from the original spike concentration.
Following the fabrication of the biomimetic polymer, several considerations should be set before carrying out the d-BMSPE. First, the amount of PC on the modified polymer (GMA@HMD@GA@HMD@PCs) to simulate the absorption area of the jejunum needs to be evaluated.
The estimated liquid volume under fasted conditions of the jejunum is ca. 20 mL.[45] However, in this work, solutions of 5 mL were selected in order to reduce the amount of biomimetic material used in every extraction protocol. Therefore, only 1/4 of the total PC amount calculated above (ca. 9 μmol) should be used to maintain the PC to jejunum liquid ratio. A crucial experimental parameter in our work is the amount of PC-laden biopolymer necessary to simulate the absorption area of the jejunum.
With respect to the remainder of experimental parameters, a gentle agitation was performed at 15 rpm to just enable a good dispersion of the polymer in the test solution. The extraction time was set to 30 min according to the average intestinal transit time and the length of the jejunum over the total length of the small intestine.[46] Finally, the extraction temperature was set to 37 °C to simulate physiological conditions.
In addition, a new bioparameter, “RMBE” that stands for "Relative Mol BioExtraction", is herein proposed for the first time. RMBE is defined as the extraction efficiency expressed as mol of analyte extracted per mol of PC attached to the biomimetic material under physiologically simulated conditions (e.g., extraction using PBS buffer at 37 °C, or gastrointestinal fluid surrogates, or actual human fluids, among others).

human jejunum = settings: value = Peff x 10^4; cited from earlier work
[2] = Dispersive extraction with the polymer prior to PC attachment (GMA@HMD@GA@HMD); assay type: physicochemical
[3] = Dispersive extraction with the free polymer (GMA monolith); assay type: physicochemical; settings: free polymer without PC

Row | Compound | d-BMSPE extraction efficiency [1] | RMBE·10^4 (relative mol bioextraction) [1] [mol CEC/mol PC] | experimental Peff·10^4 (human jejunum) | extraction efficiency, GMA@HMD@GA@HMD [2] [%] | extraction efficiency, GMA monolith [3] [%]
1 | NS(=O)(=O)c1cc(C(=O)O)c(NCc2ccco2)cc1Cl [FUR, furosemide] | 26.3 ± 1.1% | 49.8 ± 0.9 | 0.6[49] cm/ s | – | –
2 | CN/C(=N/CCSCc1nc[nH]c1C)NC#N [CTM, cimetidine] | 4.6 ± 2.1% | 9.6 ± 1.7 | 0.8[51] cm/ s | – | –
3 | CN(C)C(=N)N=C(N)N [MET, metformin] | 0.9% and 0.9 ± 0.1% | 3.6 ± 0.7 | 0.1[52] cm/ s | – | –
4 | Cc1cnc(C(=O)NCCc2ccc(S(=O)(=O)NC(=O)NC3CCCCC3)cc2)cn1 [GLP, glipizide] | – | – | 0.9[38] cm/ s | – | –
5 | CC1=C(C(=O)O)N2C(=O)[C@@H](NC(=O)[C@H](N)c3ccccc3)[C@H]2SC1 [CEX, cephalexin] | – | – | 1.6[6] cm/ s | – | –
6 | O=C(O)Cc1ccccc1Nc1c(Cl)cccc1Cl [DCF, diclofenac] | 10.6 ± 1.1% | 22.6 ± 0.8 | 1.6[40] cm/ s | ~40 | ~100
7 | CC(=O)Nc1ccc(O)cc1 [PCT, paracetamol] | 15.3 ± 0.8% | 60.3 ± 1.5 | 4.0[6] cm/ s | – | –

— article PMC10483468, “Biomimetic Dispersive Solid-Phase Microextraction: A Novel Concept for High-Throughput Estimation of Human Oral Absorption of Organic Compounds” (Analytical Chemistry, 2023)
